Measured values reported in ChEMBL document CHEMBL5696439 (Cancer Res, 2010).
pIC50: −log10 of the molar value. Calls of active or inactive are those of the source. The calls are words filed in the database; no cut-off is given here.

Columns and labels:
[1] = target: Tyrosine-protein kinase Lck (Homo sapiens) (UniProt P06239); experiment: Inhibition of recombinant human full-length His-tagged LCK expressed in insect cells at 2 uM using Tyr 02 as substrate measured after 1 hr by Z'-LYTE assay relative to control; conditions: Insect cell
Sequence of Tyrosine-protein kinase Lck (Homo sapiens) (P06239 2-509 limits assumed): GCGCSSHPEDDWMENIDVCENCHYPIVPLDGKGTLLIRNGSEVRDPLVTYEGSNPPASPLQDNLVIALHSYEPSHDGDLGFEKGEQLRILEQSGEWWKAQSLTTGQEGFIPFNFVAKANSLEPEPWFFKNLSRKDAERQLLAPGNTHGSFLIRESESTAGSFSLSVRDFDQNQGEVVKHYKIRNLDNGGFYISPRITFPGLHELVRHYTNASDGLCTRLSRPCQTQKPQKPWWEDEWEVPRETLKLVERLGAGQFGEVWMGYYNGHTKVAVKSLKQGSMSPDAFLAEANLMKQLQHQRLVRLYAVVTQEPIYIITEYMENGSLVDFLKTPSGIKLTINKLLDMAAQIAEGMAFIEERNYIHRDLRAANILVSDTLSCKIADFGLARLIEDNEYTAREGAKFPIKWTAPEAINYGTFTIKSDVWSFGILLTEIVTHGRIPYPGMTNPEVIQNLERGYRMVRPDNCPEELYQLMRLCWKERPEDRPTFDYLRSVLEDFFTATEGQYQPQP

[2] = target: Protein kinase C theta type (Homo sapiens) (UniProt Q04759); experiment: Inhibition of recombinant human PRKCQ at 2 uM using Ser/Thr 07 as substrate measured after 1 hr by Z'-LYTE assay relative to control
Sequence of Protein kinase C theta type (Homo sapiens) (Q04759 whole entry, looked up): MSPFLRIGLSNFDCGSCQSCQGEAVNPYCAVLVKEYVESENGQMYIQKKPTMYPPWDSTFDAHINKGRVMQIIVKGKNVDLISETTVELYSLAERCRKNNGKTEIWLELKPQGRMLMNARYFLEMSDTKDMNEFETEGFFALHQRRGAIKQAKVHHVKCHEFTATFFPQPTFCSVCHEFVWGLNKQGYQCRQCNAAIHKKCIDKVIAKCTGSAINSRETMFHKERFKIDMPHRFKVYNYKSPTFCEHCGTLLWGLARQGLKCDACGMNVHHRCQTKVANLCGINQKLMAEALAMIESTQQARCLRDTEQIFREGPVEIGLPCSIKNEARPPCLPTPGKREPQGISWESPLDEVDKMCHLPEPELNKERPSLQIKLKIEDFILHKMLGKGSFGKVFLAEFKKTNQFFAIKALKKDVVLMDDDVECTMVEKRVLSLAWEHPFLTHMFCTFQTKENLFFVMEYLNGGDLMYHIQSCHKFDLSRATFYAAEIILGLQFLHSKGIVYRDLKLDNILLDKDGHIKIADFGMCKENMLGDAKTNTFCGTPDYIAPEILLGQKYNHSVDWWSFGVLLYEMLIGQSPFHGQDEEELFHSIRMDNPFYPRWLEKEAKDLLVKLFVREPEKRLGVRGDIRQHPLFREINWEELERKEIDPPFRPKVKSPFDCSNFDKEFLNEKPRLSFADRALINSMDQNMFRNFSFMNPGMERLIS

[3] = system: 786-0; experiment: Antiproliferative activity against human 786-0 cells assessed as cell growth inhibition incubated for 24 hrs by MTS assay; format: functional, cell-based; conditions: 786-0, 24 h
[4] = target: Platelet-derived growth factor receptor beta (Homo sapiens) (UniProt P09619); experiment: Inhibition of recombinant human His-tagged PDGFRB (558-1106 residues) expressed in baculovirus expression system at 2 uM using Tyr 04 as substrate measured after 1 hr by Z'-LYTE assay relative to control
[5] = system: A549; experiment: Induction of apoptosis in human A549 cells assessed as reduction in S phase at 1 micromol/L incubated for 24 hrs by FACS analysis; format: functional, cell-based; conditions: dose 1.0 µmol/L
[6] = system: A498; experiment: cells; conditions: Homo sapiens, A498, 48 h
Description: Antiproliferative activity against human A498 cells assessed as cell growth inhibition incubated for 2 days by MTS assay

[7] = target: Testis-specific serine/threonine-protein kinase 2 (Homo sapiens) (UniProt Q96PF2); experiment: Inhibition of recombinant human full length His-tagged STK22B expressed in insect cells at 2 uM using Ser/Thr 04 as substrate measured after 1 hr by Z'-LYTE assay relative to control; conditions: Insect cell
Sequence of Testis-specific serine/threonine-protein kinase 2 (Homo sapiens) (Q96PF2 whole entry): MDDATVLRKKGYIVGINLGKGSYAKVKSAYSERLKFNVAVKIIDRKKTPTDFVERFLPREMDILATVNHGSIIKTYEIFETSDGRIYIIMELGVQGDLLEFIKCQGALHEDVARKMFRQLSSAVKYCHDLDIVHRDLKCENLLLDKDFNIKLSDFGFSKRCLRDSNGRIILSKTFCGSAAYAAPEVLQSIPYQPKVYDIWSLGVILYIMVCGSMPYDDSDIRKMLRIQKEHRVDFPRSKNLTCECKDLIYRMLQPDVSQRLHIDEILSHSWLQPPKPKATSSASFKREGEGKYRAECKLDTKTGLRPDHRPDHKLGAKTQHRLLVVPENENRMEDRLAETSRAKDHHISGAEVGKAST

[8] = target: Serine/threonine-protein kinase PLK1 (Homo sapiens) (UniProt P53350); experiment: Inhibition of recombinant human full length His-tagged PLK1 expressed in insect cells at 2 uM using Ser/Thr 16 as substrate measured after 1 hr by Z'-LYTE assay relative to control; conditions: Insect cell
[9] = target: Casein kinase II subunit alpha (Homo sapiens) (UniProt P68400); experiment: Inhibition of recombinant human full-length His-tagged CSNK2A1 expressed in baculovirus expression system at 2 uM using Ser/Thr 11 as substrate measured after 1 hr by Z'-LYTE assay relative to control
[10] = target: Tyrosine-protein kinase ABL2 (Homo sapiens) (UniProt P42684); experiment: Inhibition of recombinant human full-length His-tagged ABL2 expressed in insect cells at 2 uM using Tyr 02 as substrate measured after 1 hr by Z'-LYTE assay relative to control; conditions: Insect cell
Sequence of Tyrosine-protein kinase ABL2 (Homo sapiens) (P42684 whole entry): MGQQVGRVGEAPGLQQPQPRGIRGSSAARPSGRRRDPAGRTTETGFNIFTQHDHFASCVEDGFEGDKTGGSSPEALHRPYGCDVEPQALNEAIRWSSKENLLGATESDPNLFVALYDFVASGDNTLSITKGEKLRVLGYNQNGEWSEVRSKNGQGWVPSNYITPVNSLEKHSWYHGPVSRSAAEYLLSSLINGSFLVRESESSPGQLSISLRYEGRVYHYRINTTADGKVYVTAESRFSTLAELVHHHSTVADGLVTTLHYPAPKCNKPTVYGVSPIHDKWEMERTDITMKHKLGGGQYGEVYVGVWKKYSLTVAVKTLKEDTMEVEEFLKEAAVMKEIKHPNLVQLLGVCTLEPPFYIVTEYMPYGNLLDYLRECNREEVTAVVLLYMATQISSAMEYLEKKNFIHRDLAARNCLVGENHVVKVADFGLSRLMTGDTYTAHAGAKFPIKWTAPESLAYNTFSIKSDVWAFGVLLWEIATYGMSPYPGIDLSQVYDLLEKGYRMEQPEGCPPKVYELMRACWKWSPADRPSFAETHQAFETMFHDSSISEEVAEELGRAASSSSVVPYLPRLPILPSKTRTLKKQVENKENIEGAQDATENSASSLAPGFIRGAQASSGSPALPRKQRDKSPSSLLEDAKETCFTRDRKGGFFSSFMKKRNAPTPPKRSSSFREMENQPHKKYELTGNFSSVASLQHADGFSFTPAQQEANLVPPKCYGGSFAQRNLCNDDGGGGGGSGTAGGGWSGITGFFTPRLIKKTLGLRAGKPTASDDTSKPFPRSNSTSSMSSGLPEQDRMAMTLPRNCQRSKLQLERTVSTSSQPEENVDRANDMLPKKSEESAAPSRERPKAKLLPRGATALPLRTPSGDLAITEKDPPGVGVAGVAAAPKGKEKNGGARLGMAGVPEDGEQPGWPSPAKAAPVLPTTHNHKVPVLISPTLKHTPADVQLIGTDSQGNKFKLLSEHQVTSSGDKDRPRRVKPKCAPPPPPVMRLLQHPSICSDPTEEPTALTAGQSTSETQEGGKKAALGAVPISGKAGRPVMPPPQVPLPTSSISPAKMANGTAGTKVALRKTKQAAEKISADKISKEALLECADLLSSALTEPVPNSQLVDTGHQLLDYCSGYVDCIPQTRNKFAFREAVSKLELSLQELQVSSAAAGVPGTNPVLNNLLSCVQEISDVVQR

[11] = system: A549; experiment: Antitumor activity against human A549 cells xenografted in female nude mouse model assessed as suppression in tumor growth at 50 mg/kg, po qd administered as 5 days on/2 days off regimen for 4 cycles relative to control; format: functional; conditions: time 28 day
[12] = system: Rat1; experiment: Inhibition of mTORC1 in rat Rat1 cells assessed as S6K phosphorylation at T389 level preincubated for 1 hrs in the presence of IGF-1 stimulation by immunoblot assay; format: cell-based; conditions: dose 0.01-2 µmol/L
[13] = target: Vascular endothelial growth factor receptor 1 (Homo sapiens) (UniProt P17948); experiment: Inhibition of recombinant human GST-tagged FLT1 (781-1338 residues) expressed in insect cells at 2 uM using Tyr 04 as substrate measured after 1 hr by Z'-LYTE assay relative to control; conditions: Insect cell
[14] = system: Epidermal growth factor receptor (Homo sapiens), P00533 [L861Q]; experiment: Inhibition of recombinant human GST-tagged EGFR L861Q mutant (668-1210 residues) expressed in insect cells at 2 uM using Tyr 04 as substrate measured after 1 hr by Z'-LYTE assay relative to control; conditions: Insect cell
[15] = system: Tyrosine-protein kinase ABL1 (Homo sapiens), P00519 [T315I]; experiment: Inhibition of recombinant human full-length His-tagged ABL1 T315I mutant expressed in insect cells at 2 uM using Tyr 02 as substrate measured after 1 hr by Z'-LYTE assay relative to control; conditions: Insect cell
[16] = target: Ephrin type-B receptor 2 (Homo sapiens) (UniProt P29323); experiment: Inhibition of recombinant human GST-tagged EPHB2 (616-884 residues) expressed in insect cells at 2 uM using Tyr 02 as substrate measured after 1 hr by Z'-LYTE assay relative to control; conditions: Insect cell
Sequence of Ephrin type-B receptor 2 (Homo sapiens) (P29323 whole entry, the tested form may be a part): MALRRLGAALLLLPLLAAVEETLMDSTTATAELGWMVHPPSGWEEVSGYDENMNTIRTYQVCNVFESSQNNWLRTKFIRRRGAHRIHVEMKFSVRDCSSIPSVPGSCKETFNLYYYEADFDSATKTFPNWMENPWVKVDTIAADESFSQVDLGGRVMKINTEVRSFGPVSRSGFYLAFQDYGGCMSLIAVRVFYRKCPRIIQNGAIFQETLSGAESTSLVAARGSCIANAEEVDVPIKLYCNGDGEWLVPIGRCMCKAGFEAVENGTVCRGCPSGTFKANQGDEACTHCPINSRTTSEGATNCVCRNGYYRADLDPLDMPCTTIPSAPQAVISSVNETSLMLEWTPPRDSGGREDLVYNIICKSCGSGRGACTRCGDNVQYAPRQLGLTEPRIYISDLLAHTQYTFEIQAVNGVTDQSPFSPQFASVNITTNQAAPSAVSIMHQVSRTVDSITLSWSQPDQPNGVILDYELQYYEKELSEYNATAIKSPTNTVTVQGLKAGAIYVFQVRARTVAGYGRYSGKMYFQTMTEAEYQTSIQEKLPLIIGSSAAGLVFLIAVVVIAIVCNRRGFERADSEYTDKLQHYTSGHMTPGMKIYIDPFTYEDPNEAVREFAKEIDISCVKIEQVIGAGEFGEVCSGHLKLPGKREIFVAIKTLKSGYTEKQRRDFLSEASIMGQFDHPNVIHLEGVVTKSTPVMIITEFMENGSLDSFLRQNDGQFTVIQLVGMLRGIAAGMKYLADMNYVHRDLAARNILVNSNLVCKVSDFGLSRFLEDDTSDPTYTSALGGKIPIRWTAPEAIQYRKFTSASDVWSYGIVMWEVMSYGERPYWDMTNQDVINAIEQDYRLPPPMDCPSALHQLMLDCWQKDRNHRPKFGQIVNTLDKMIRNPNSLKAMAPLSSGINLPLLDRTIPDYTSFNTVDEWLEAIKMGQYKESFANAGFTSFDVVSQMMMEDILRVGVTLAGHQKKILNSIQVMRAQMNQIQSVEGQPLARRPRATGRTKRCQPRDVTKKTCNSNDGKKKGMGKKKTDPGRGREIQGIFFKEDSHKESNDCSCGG

[17] = target: Serine/threonine-protein kinase Nek6 (Homo sapiens) (UniProt Q9HC98); experiment: Inhibition of recombinant human full length GST-tagged NEK6 expressed in insect cells at 2 uM using Ser/Thr 22 as substrate measured after 1 hr by Z'-LYTE assay relative to control; conditions: Insect cell
[18] = target: T1, mTORC2 (Homo sapiens) (UniProt P42345+Q6R327+Q9BVC4+Q9BPZ7); conditions: PC3MM2, dose 0.1-1 µM, time 6.0 hrs
[19] = target: Serine/threonine-protein kinase pim-2 (Homo sapiens) (UniProt Q9P1W9); experiment: Inhibition of recombinant human full length GST-tagged PIM2 expressed in insect cells at 2 uM using Ser/Thr 07 as substrate measured after 1 hr by Z'-LYTE assay relative to control; conditions: Insect cell
Sequence of Serine/threonine-protein kinase pim-2 (Homo sapiens) (Q9P1W9 whole entry, looked up): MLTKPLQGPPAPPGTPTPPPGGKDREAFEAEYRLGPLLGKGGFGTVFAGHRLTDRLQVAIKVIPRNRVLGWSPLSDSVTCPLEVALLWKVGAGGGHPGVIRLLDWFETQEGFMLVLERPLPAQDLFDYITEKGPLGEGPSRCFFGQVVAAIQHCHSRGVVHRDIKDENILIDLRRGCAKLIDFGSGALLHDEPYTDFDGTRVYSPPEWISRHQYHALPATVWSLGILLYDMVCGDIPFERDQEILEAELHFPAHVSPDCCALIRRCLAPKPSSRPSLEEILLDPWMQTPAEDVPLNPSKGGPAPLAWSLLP

[20] = system: MDA-MB-361; experiment: Inhibition of protein synthesis in human MDA-MB-361 cells at 1 micromol/L incubated for 3 hrs by [3H] methionine incorporation based scintillation counter analysis relative to control; format: functional; conditions: MDA-MB-361, 3 h, dose 1 µmol/L
[21] = target: Serine/threonine-protein kinase Nek2 (Homo sapiens) (UniProt P51955); experiment: Inhibition of recombinant human full length His-tagged NEK2 expressed in baculovirus expression system at 2 uM using Ser/Thr 07 as substrate measured after 1 hr by Z'-LYTE assay relative to control
Sequence of Serine/threonine-protein kinase Nek2 (Homo sapiens) (P51955 whole entry): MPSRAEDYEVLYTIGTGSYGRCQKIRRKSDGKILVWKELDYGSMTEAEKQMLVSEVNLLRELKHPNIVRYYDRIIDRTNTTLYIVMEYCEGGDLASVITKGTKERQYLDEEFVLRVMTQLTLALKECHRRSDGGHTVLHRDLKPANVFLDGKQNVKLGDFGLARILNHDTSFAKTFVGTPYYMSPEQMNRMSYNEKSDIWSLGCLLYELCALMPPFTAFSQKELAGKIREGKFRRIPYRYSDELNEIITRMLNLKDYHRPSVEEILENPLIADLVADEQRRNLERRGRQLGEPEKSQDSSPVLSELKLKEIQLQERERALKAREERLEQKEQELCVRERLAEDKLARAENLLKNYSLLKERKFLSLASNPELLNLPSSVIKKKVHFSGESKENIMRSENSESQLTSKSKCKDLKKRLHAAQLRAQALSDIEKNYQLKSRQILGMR

[22] = system: A549; experiment: Antiproliferative activity against human A549 cells assessed as cell growth inhibition at 10 micromol/L incubated for 3 days by MTS assay relative to control; format: functional; conditions: A549, 72 h, dose 10 µmol/L, time 3 day
[23] = target: cAMP-dependent protein kinase catalytic subunit PRKX (Homo sapiens) (UniProt P51817); experiment: Inhibition of recombinant human full length GST-tagged PRKX expressed in insect cells at 2 uM using Ser/Thr 01 as substrate measured after 1 hr by Z'-LYTE assay relative to control; conditions: Insect cell
[24] = target: T1, mTORC2 (Homo sapiens); conditions: U-87 MG, dose 0.025-2 µmol/L, time 6.0 hrs
[25] = target: Beta-adrenergic receptor kinase 1 (Homo sapiens) (UniProt P25098); experiment: Inhibition of recombinant human full-length His-tagged ADRBK1 expressed in insect cells at 2 uM using Ser/Thr 16 as substrate measured after 1 hr by Z'-LYTE assay relative to control; conditions: Insect cell
[26] = target: Aurora kinase B (Homo sapiens) (UniProt Q96GD4); experiment: Inhibition of recombinant human full-length His-tagged AURKB expressed in insect cells at 2 uM using Ser/Thr 01 as substrate measured after 1 hr by Z'-LYTE assay relative to control; conditions: Insect cell
Sequence of Aurora kinase B (Homo sapiens) (Q96GD4 whole entry): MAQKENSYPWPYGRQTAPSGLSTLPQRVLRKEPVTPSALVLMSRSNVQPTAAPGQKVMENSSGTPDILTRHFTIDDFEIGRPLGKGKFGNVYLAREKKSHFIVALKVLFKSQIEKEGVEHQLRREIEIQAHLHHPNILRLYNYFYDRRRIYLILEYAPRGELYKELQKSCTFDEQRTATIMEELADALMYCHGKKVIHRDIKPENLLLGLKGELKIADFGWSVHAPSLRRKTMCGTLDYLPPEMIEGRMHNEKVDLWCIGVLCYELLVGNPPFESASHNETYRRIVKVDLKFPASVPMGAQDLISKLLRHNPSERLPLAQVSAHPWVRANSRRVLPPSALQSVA

[27] = system: MDA-MB-361; experiment: Antiproliferative activity against human MDA-MB-361 cells assessed as cell growth inhibition incubated for 2 days by MTS assay; format: functional, cell-based; conditions: MDA-MB-361, 48 h

CNC(=O)Nc1ccc(-c2nc(N3CC4CCC(C3)O4)c3cnn(C4CCC5(CC4)OCCO5)c3n2)cc1
inhibition [1]: 10% | inhibition [2]: 5% | pIC50 [3]: 6.92 | inhibition [4]: 2% | Activity [5]: Active | pIC50 [6]: 5.60 | inhibition [7]: 2% | inhibition [8]: -4% | inhibition [9]: 0% | inhibition [10]: 13% | Activity [11]: 100% | inhibition [12]: Active | inhibition [13]: 8% | inhibition [14]: -1% | inhibition [15]: 0% | inhibition [16]: 6% | inhibition [17]: 12% | inhibition [18]: inactive | inhibition [19]: 3% | inhibition at 1 µM [20]: ~50% | inhibition [21]: 10% | inhibition at 10 µM [22]: 100% | inhibition [23]: 5% | inhibition [24]: Active | inhibition [25]: -1% | inhibition [26]: 3% | pIC50 [27]: 7.30
